Tested on: C9ORF72 patient iMNs
Test: induced motor neuron (iMN) survival assay, glutamate treatment
Type: cell-based, human
Settings: excess glutamate (10 μM, 12 hrs); longitudinal tracking, log-rank
Experimental: For the glutamate treatment conditions, 10 μM glutamate was added to the culture medium on day 17 and removed after 12 hrs. Cells were then maintained in N3 medium with neurotrophic factors without RepSox. For the glutamate treatment conditions with glutamate receptor antagonists, cultures were co-treated with 10 μM MK801 and CNQX, and 2 μM Nimodipine during the 12 hr glutamate treatment. The antagonists were maintained for the remainder of the experiment. For the neurotrophic factor withdrawal condition, BDNF, GDNF, and CNTF were removed from the culture medium starting at day 17. Longitudinal tracking was performed by imaging neuronal cultures in a Nikon Biostation CT or Molecular Devices ImageExpress once every 24 hrs starting at day 17. Tracking of neuronal survival was performed using SVcell 2.0 (DRVision Technologies).

Cc1cccc(/C=N/Nc2cc(N3CCOCC3)nc(OCCc3ccccn3)n2)c1 [apilimod]
survival of C9ORF72 patient iMNs: increased the survival

Source: US10758545B2, “Methods to treat neurological diseases” (UNIVERSITY OF SOUTHERN CALIFORNIA, priority 2015, dated 2020)
